The target of assay [1] is Human Norepinephrine Transporter (NET (h)) (Homo sapiens (Human), UniProt P23975). Nature of the assay: Radioligand binding assay, human norepinephrine transporter ([3H]nisoxetine). Conditions: 2 h; single concentration 1.0 E-5 M, duplicate, mean values. As for the experimental part: (The measurement was performed as described in Pacholczyk, T., Blakely, R. D. and Amara, S. G. (1991), Expression cloning of a cocaine- and antidepressant-sensitive human noradrenaline transporter, Nature, 350: 350)
Cell membrane homogenates (20 μg protein) are incubated for 120 min at 4° C. with 1 nM [3H]nisoxetine in the absence or presence of the test compound in a buffer containing 50 mM Tris-HCl (pH 7.4), 120 mM NaCl and 5 mM KCl. Nonspecific binding is determined in the presence of 1 μM desipramine. Following incubation, the samples are filtered rapidly under vacuum through glass fiber filters (GF/B, Packard) presoaked with 0.3% PEI and rinsed several times with ice-cold 50 mM Tris-HCl using a 96-sample cell harvester (Unifilter, Packard). The filters are dried then counted for radioactivity in a scintillation counter (Topcount, Packard) using a scintillation cocktail (Microscint 0, Packard).
(§1) The results are expressed as a percent inhibition of the control radioligand specific binding.
(§2) […] Reported values are mean values.

The test system of another assay is NA, DA and 5-HT. Nature of the assay: In vivo brain microdialysis: extracellular monoamines in striatum and frontal cortex. The arrangement: species or system Sprague-Dawley rats. The following applies: 50 μmol/kg s.c., n=1-3; for response vs control in vivo at 50 µmol/kg: Rattus norvegicus, sc. From the text:
The microdialysis technique is a well-established technique for measuring extracellular levels of neurotransmitters (Ungerstedt, J Int Med, 1991, 230; 365-73). The microdialysis technique was used to measure the effect of compounds disclosed herein upon the efflux of monoamine transmitters (NA, DA and 5-HT) in striatum and frontal cortex in conscious, freely moving rats.
Male Sprague-Dawley rats weighing 280-320 g were used throughout the experiments. Before the experiment the animals were housed in groups, maximum five animals in each cage, with free access to water and food. The animals were housed at least one week prior to surgery and use in the experiments.
A modified version (Waters et al., J Neural Transm Gen Sect, 1994, 98(1); 39-55) of the !-shaped probe (Santiago and Westerink, N-S Arch Pharmacol, 1990, 342; 407-14) with the AN69 polyacrylonitrile/sodium methyl sulfonate copolymer (HOSPAL; o.d/i.d. 310/220 μm: dialysis membrane (Gambro, Lund, Sweden) was used in the microdialysis experiments. In the dorsal striatum, probes with an exposed length of 3 mm of dialysis membrane were used and in the prefrontal cortex the corresponding length was 2.5 mm. The rats were operated under isoflurane inhalation anesthesia while mounted into a Kopf stereotaxic instrument. Coordinates were calculated relative to bregma; dorsal striatum AP+1.0, ML±2.6, DV 6.2; Pf cortex, AP+3.2, ML±1.2, DV −4.0 8°, according to Paxinos and Watson (New York, Academic Press, 1986; FIG. 8 and FIG. 14). The dialysis probe was positioned in a burr hole under stereotaxic guidance and cemented with phosphatine dental cement (DAB Dental).
The rats were housed individually in cages for 48 h before the dialysis experiments, allowing them to recover from surgery and minimizing the risk of drug interactions with the anesthetics during the following experiments. During this period the rats had free access to food and water. On the day of the experiment the rats were connected to a micro-perfusion pump via a swivel and were replaced in the cage where they could move freely within its confinements. The perfusion medium was a Ringer's solution containing (in mmol/l): NaCl; 140, CaCl2); 1.2, KCl; 3.0, MgCl2; 1.0 (Moghaddam and Bunney. Neurochem., 1989, 53; 652-4). The pump was set to a perfusion speed of 2 μl/min and 40 μl sample volume were collected every 20 min.
The rats were perfused for at least 40 min before sampling began. Five fractions of each 20 min were collected and the last three were used for the establishment of the baseline. After collection of baseline fractions, the pharmacological challenge to the dialysis experiment started. Test compounds were administrated by injection (s.c.) in a volume of 5 ml/kg, with 0.9% NaCl (saline) as vehicle.
The analytical method were based on two chromatographic separations dedicated for amines or acids. Two chromatographic systems shared a common auto injector with a 10-port valve and two sample loops for simultaneous injection on the two systems.
The acids were separated by reversed phase chromatography while the amines were separated by reversed phase ion pairing chromatography preceded by a reverse phase separation in a column switching configuration. Three separation columns (Luna C18 (2), dp 3 μm, 2 mm i.d., Phenomenex) of different lengths were used. Electrochemical detection was accomplished on glassy carbon electrodes (MF-1000, Bioanalytical Systems, Inc.)
The aqueous mobile phase (0.6 ml/min) for the acid system contained citric acid (40 mM, dipotassium hydrogen phosphate 10 mM, methanol 8-11% (v/v) and EDTA 0.1 mM. Column length was 30 mm and detection potential relative to Ag/AgCl reference was 0.74V.
The aqueous ion pairing mobile phase (0.4 ml/min) for the amine system contained citric acid 5 mM, sodium citrate 10 mM, acetone 9% (v/v), tetrahydrofurane 3% (v/v), dodecane sulphonic acid 0.025 mM, and EDTA 0.1 mM. Column length was 50 mm and the preceding column was 20 mm. […]

Assay [2] concerns the target Human Dopamine Transporter (DAT (h)) (Homo sapiens (Human), UniProt Q01959). Nature of the assay: Radioligand binding assay, human dopamine transporter ([3H]BTCP). Conditions: 2 h; single concentration 1.0 E-5 M, duplicate, mean values. As for the experimental part: (The measurement was performed as described in Pristuba, Z. B., Wilson, J. M., Hoffman, B. J., Kish, S. J. and Nisnik, H. B. (1994), Pharmacological heterogeneity of the cloned and native human dopamine transporter: disassociation of [3H]WIN 35,428 and [3H]GBR 12,935 binding, Mol. Pharmacol., 45: 125)
Cell membrane homogenates (20 μg protein) are incubated for 120 min at 4° C. with 4 nM
[3H]BTCP in the absence or presence of the test compound in a buffer containing 50 mM Tris-HCl (pH 7.4) and 100 mM NaCl. Nonspecific binding is determined in the presence of 10 μM BTCP. Following incubation, the samples are filtered rapidly under vacuum through glass fiber filters (GF/B, Packard) presoaked with 0.3% PEI and rinsed several times with ice-cold 50 mM Tris-HCl using a 96-sample cell harvester (Unifilter, Packard). The filters are dried then counted for radioactivity in a scintillation counter (Topcount, Packard) using a scintillation cocktail (Microscint 0, Packard).
as §1, §2

Assay [3] addresses Human 5-HT Transporter (SERT (h)) (Homo sapiens (Human), UniProt P31645). Nature of the assay: Radioligand binding assay, human 5-HT transporter ([3H]imipramine). The following applies: 1 h; single concentration 1.0 E-5 M, duplicate, mean values. As to the method:
(The measurement was performed as described in Tatsumi, M., Jansen, K., Blakely, R. D. and Richelson, E. (1999), Pharmacological profile of neuroleptics at human monoamine transporters, Eur. J. Pharmacol.
Cell membrane homogenates (12 μg protein) are incubated for 60 min at 22° C. with 2 nM [3H]imipramine in the absence or presence of the test compound in a buffer containing 50 mM Tris-HCl (pH 7.4), 120 mM NaCl, 5 mM KCl and 0.1% BSA.
Nonspecific binding is determined in the presence of 10 μM imipramine.
Following incubation, the samples are filtered rapidly under vacuum through glass fiber filters (GF/B, Packard) presoaked with 0.3% PEI and rinsed several times with an ice-cold buffer containing 50 mM Tris-HCl and 150 mM NaCl using a 96-sample cell harvester (Unifilter, Packard). The filters are dried then counted for radioactivity in a scintillation counter (Topcount, Packard) using a scintillation cocktail (Microscint 0, Packard).
The results are expressed as a percent inhibition of the control radioligand specific binding
as §2

The mark [4] stands for this setting: frontal cortex, read-out: 5-HT FC, maximum effect compared to baseline ± SEM.
The mark [5] stands for this setting: frontal cortex, read-out: DA FC, maximum effect compared to baseline ± SEM.
Where [6] appears, read: frontal cortex, read-out: NA FC, maximum effect compared to baseline ± SEM.
[7] abbreviates: striatum, read-out: DA Stri, maximum effect compared to baseline ± SEM.
The mark [8] stands for this setting: striatum, read-out: 5-HT Stri, maximum effect compared to baseline ± SEM.

Where a name gives a salt, the structure may show the parent alone. Read-outs that look alike come from different tables or passages of the source. Marks after values point to notes of the source that are not given here.

Sequence of Human Norepinephrine Transporter (NET (h)) (P23975 whole entry): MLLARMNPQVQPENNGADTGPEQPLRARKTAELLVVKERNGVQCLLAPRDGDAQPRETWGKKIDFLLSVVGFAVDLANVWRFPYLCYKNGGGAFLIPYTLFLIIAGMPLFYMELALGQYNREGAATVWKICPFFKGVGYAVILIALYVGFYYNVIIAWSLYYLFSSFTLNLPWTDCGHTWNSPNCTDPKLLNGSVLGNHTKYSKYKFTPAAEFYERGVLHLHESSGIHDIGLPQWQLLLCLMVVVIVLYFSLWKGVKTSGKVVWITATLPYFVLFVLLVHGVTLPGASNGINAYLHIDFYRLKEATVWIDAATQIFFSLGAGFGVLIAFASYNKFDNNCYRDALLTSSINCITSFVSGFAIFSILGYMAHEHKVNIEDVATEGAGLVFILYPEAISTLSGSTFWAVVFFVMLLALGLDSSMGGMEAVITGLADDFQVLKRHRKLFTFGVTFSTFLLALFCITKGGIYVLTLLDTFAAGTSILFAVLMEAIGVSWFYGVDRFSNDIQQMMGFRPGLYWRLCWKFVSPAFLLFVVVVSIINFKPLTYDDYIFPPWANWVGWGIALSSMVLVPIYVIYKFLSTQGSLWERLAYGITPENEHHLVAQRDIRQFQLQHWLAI
Sequence of Human 5-HT Transporter (SERT (h)) (P31645 whole entry): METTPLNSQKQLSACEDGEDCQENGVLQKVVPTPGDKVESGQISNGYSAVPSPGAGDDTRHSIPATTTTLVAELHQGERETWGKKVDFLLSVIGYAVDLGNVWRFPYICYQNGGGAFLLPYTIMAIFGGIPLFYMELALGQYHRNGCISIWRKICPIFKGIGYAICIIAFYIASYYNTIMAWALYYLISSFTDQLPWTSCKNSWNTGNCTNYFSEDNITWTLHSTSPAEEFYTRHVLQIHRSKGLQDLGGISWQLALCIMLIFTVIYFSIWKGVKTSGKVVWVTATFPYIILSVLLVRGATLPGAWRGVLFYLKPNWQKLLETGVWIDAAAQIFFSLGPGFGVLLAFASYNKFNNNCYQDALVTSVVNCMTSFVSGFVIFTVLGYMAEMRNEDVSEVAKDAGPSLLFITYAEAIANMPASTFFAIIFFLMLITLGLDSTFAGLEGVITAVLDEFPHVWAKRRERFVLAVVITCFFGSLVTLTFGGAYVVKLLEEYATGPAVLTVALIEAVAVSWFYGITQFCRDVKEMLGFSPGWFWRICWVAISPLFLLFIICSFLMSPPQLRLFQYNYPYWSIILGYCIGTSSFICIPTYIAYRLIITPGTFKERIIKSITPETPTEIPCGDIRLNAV
Sequence of Human Dopamine Transporter (DAT (h)) (Q01959 whole entry): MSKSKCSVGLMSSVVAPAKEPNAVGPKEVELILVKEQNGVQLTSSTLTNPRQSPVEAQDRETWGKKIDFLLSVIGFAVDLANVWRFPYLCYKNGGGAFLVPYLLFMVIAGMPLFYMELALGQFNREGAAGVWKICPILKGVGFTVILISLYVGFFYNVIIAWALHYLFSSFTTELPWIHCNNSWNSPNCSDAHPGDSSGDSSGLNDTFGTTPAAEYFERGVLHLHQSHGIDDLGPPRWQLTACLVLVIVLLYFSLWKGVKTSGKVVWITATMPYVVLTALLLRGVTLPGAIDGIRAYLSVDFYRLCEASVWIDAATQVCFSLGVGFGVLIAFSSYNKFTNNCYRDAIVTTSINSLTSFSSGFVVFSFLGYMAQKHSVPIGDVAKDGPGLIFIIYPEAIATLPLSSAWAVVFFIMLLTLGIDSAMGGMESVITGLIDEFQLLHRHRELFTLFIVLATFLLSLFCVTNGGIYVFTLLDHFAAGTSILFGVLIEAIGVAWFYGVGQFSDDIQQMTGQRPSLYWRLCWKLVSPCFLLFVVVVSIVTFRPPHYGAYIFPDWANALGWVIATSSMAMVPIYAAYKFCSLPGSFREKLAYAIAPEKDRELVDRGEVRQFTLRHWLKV

The inhibition is the relative decrease from the control value, in per cent. As to `Fc1ccc(OC2CNC2)c(F)c1F` [Example 10, 3-(2,3,4-trifluoro-phenoxy)azetidine fumaric acid salt], the values for the inhibition at 10 µM in assay [1], in assay [2] and in assay [3] were -2%, 15% and 29%, respectively. Besides, the response vs control in vivo at 50 µmol/kg in the assay on NA, DA and 5-HT (setting [4]) was found to be 709 ± 139%; in the assay with NA, DA and 5-HT (setting [5]) it was 466 ± 161%; in the assay on NA, DA and 5-HT (setting [6]) it was 799 ± 137%; in the assay with NA, DA and 5-HT (setting [7]), 126 ± 10%.
As for `CN1CC(Oc2c(F)c(F)cc(F)c2F)C1` [Example 38, 1-methyl-3-(2,3,5,6-tetrafluorophenoxy)azetidine hydrochloric acid salt], the inhibition at 10 µM in assay [1] was 6%; in assay [2], 11%; in assay [3], -11%. The “NA Stri, maximum effect compared to baseline ± SEM” value in the assay on NA, DA and 5-HT (striatum) is 306 ± 146^a % of control. For the same compound, the response vs control in vivo at 50 µmol/kg in the assay on NA, DA and 5-HT (setting [4]) stood at 148 ± 12%; in the assay on NA, DA and 5-HT (setting [5]), 467 ± 20%; in the assay with NA, DA and 5-HT (setting [6]), 422 ± 102%; in the assay on NA, DA and 5-HT (setting [8]), 205 ± 20%; with NA, DA and 5-HT (setting [7]), 203 ± 8%.
As to `Fc1c(F)c(F)c(OC2CNC2)c(F)c1F` [Example 43, 3-(2,3,4,5,6-pentafluoro-phenoxy)azetidine hydrochloric acid salt], the values for the inhibition at 10 µM in assay [1], in assay [2] and in assay [3] were -1%, 11% and -7.6%, respectively.
In the case of `Fc1cc(F)c(OC2CNC2)c(F)c1` [Example 49, 3-(2,4,6-Trifluorophenoxy)azetidine hydrochloric acid salt], the inhibition at 10 µM in assay [1] turned out to be 6%; in assay [2], 12%; in assay [3], 10%. In addition, the “NA Stri, maximum effect compared to baseline ± SEM” value in the assay with NA, DA and 5-HT (striatum) is reported as 353^b % of control. Moreover, the response vs control in vivo at 50 µmol/kg with NA, DA and 5-HT (setting [5]) was found to be 391 ± 131%; in the assay with NA, DA and 5-HT (setting [6]), 862 ± 437%; in the assay on NA, DA and 5-HT (setting [8]), 573 ± 1%; in the assay on NA, DA and 5-HT (setting [7]) it was 135 ± 2%.
Regarding `Fc1cc(OC2CNC2)cc(F)c1F` [Example 50, 3-(3,4,5-Trifluorophenoxy)azetidine hydrochloric acid salt], the inhibition at 10 µM in assay [1] came to 3%; in assay [2], 17%; in assay [3], 28%. Further, the response vs control in vivo at 50 µmol/kg amounted to 752 ± 235% with NA, DA and 5-HT (setting [4]); 787 ± 131% in the assay on NA, DA and 5-HT (setting [5]); 574 ± 45% with NA, DA and 5-HT (setting [8]); 139 ± 20% in the assay with NA, DA and 5-HT (setting [7]).
Turning to `Fc1cc(F)c(OC2CNC2)cc1F` [Example 51, 3-(2,4,5-Trifluorophenoxy)azetidine hydrochloric acid salt], the inhibition at 10 µM came to 5% in assay [1], 10% in assay [2] and 25% in assay [3]. In the assay with NA, DA and 5-HT (striatum), the “NA Stri, maximum effect compared to baseline ± SEM” value is 475^b % of control. For the same compound, the response vs control in vivo at 50 µmol/kg in the assay with NA, DA and 5-HT (setting [4]) stood at 998 ± 470%; in the assay with NA, DA and 5-HT (setting [5]) it was 389 ± 134%; in the assay with NA, DA and 5-HT (setting [6]), 910 ± 389%; in the assay with NA, DA and 5-HT (setting [8]), 663 ± 63%; in the assay with NA, DA and 5-HT (setting [7]), 144 ± 4%.

The values above are taken from patent publication US10875829B1, “Azetidine derivatives useful as modulators of cortical catecholaminergic neurotransmission” (Integrative Research Laboratories Sweden AB, priority 2016, dated 2020).
